Data reported in patent publication EP0068680A1, “Antibiotics” (BEECHAM GROUP PLC, priority 1981, dated 1983).
Converted amounts (≈) assume the structure as drawn. Like-named read-outs stand apart in the source and are kept apart here.

Key:
[1] = system: Haemophilus influenzae Wy21; experiment: MIC against Human Bacteria in vitro (agar dilution); assay type: cell-based; conditions: agar with 5% chocolated horse blood, 18 hours at 37°C
K. aerogenes A = experiment: as above; assay type: cell-based; conditions: agar with 5% chocolated horse blood, 18 hours at 37°C
M. suipneumoniae HK(2) = experiment: MIC against Mycoplasma in vitro (agar); assay type: cell-based; conditions: Friis broth solidified with 0.9% agarose, 6 days at 37°C
Past. multocida PA2 = experiment: MIC against Veterinary Bacteria in vitro (agar dilution)
Experimental: (§1) The activity of the compounds of the Examples against various veterinarily important bacteria, was assayed in vitro using two-fold serial dilutions in Diagnostic Sensitivity Test Agar inoculated with 10^4 organisms.

M. suipneumoniae Str. 11 = experiment: MIC against Mycoplasma in vitro (agar); assay type: cell-based; conditions: Friis broth solidified with 0.9% agarose, 6 days at 37°C
[2] = system: Staph. aureus B4 (pen. resistant); experiment: MIC against Veterinary Bacteria in vitro (agar dilution)
Experimental: as §1

Strep. pneumoniae CN33 = experiment: MIC against Human Bacteria in vitro (agar dilution); assay type: cell-based; conditions: agar with 5% chocolated horse blood, 18 hours at 37°C
M. pneumoniae ATCC 15492 = experiment: MIC against Mycoplasma in vitro (agar); assay type: cell-based; conditions: Friis broth solidified with 0.9% agarose, 6 days at 37°C
M. dispar NCTC 10125 = experiment: MIC against Mycoplasma in vitro (agar); assay type: cell-based; conditions: Friis broth solidified with 0.9% agarose, 6 days at 37°C
Bord. bronchiseptica B09 = experiment: MIC against Veterinary Bacteria in vitro (agar dilution)
Experimental: as §1

Strep. agalactiae SPA1 = experiment: as above
Experimental: as §1

[3] = system: M. suipneumoniae ATCC 25095; experiment: MIC against Mycoplasma in vitro (agar); assay type: cell-based; conditions: Friis broth solidified with 0.9% agarose, 6 days at 37°C
[4] = system: Corynebacterium pyogenes CY1; experiment: MIC against Veterinary Bacteria in vitro (agar dilution); conditions: Diagnostic Sensitivity Test Agar, 18 hours at 37°C
Experimental: as §1

Staph. aureus Oxford = experiment: as above
Experimental: as §1

[5] = system: Strep. pyogenes R80/421-A; experiment: MIC against Human Bacteria in vitro (agar dilution); assay type: cell-based; conditions: Streptococcus pyogenes, agar with 5% chocolated horse blood, 18 hours at 37°C
Strep. pyogenes 64/848-C = experiment: as above; assay type: cell-based; conditions: Streptococcus pyogenes, agar with 5% chocolated horse blood, 18 hours at 37°C
[6] = Mesomycoplasma hyopneumoniae, 144 h, read-out: MIC

Compound: Methyl pseudomonate D [Example 2]
- MIC [1]: 0.1 µg/mL
- MIC (K. aerogenes A): >100 µg/mL
- MIC (M. suipneumoniae HK(2)): 5.0 µg/mL
- MIC (Past. multocida PA2; Past. multocida PA2, Diagnostic Sensitivity Test Agar, 18 hours at 37°C): 2.5 µg/mL
- MIC (M. suipneumoniae Str. 11): 2.5 µg/mL
- MIC ([2]; Staph. aureus B4 (pen. resistant), Diagnostic Sensitivity Test Agar, 18 hours at 37°C): 80 µg/mL
- MIC (Strep. pneumoniae CN33): 2.5 µg/mL
- MIC (M. pneumoniae ATCC 15492): >10 µg/mL
- MIC (M. dispar NCTC 10125): 1.0 µg/mL
- MIC (Bord. bronchiseptica B09; Bord. bronchiseptica B09, Diagnostic Sensitivity Test Agar, 18 hours at 37°C): 10 µg/mL
- MIC (Strep. agalactiae SPA1; Strep. agalactiae SPA1, Diagnostic Sensitivity Test Agar, 18 hours at 37°C): 0.312 µg/mL
- MIC [3]: 2.5 µg/mL
- MIC [4]: 80 µg/mL
- MIC (Staph. aureus Oxford; Staph. aureus Oxford, Diagnostic Sensitivity Test Agar, 18 hours at 37°C): 0.625 µg/mL

Compound: CC(=CC(=O)OCCCCC=CCCC(=O)O)CC1OCC(CC2OC2C(C)C(C)O)C(O)C1O (stereo not drawn) [Example 1, pseudomonic acid D]
- MIC (K. aerogenes A; Klebsiella aerogenes, read-out: MIC): > 25 µg/mL
- MIC (M. suipneumoniae HK(2); [6]): 5 µg/mL (≈ 10 µM)
- MIC [5]: 0.5 µg/mL (≈ 1 µM)
- MIC (Past. multocida PA2; Pasteurella multocida, PA2, 18 h): < 0.019 µg/mL
- MIC (M. suipneumoniae Str. 11; [6]): 1 µg/mL (≈ 2.01 µM)
- MIC ([2]; Staphylococcus aureus, 18 h): 0.312 µg/mL (≈ 0.626 µM)
- MIC (Strep. pneumoniae CN33; Streptococcus pneumoniae, read-out: MIC): 0.25 µg/mL (≈ 0.501 µM)
- MIC (M. dispar NCTC 10125; 144 h, read-out: MIC): 2.5 µg/mL (≈ 5.01 µM)
- MIC (Strep. pyogenes 64/848-C): 0.25 µg/mL (≈ 0.501 µM)
- MIC (Bord. bronchiseptica B09; Bordetella bronchiseptica, B09, 18 h): 5 µg/mL (≈ 10 µM)
- MIC (Strep. agalactiae SPA1; Streptococcus agalactiae, SPA1, 18 h): 0.625 µg/mL (≈ 1.25 µM)
- MIC ([3]; Mesomycoplasma hyopneumoniae, ATCC25095, 144 h, read-out: MIC): 1 µg/mL (≈ 2.01 µM)
- MIC (Staph. aureus Oxford; Staphylococcus aureus, 18 h): 0.312 µg/mL (≈ 0.626 µM)
